Assay results as given in the METLIN SMRT retention time set (Domingo-Almenara et al. 2019).

Experiment: gradient 5% acetonitrile 3 min, to 50% in 2 min, to 85% in 15 min, held 3 min, 100 µL/min
Details: column: Zorbax Extend-C18 2.1 x 50 mm; eluents: water / acetonitrile, 0.1% formic acid
Outline: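 Retention times come from adduct peaks that were picked computationally and then checked by hand. The standards, pure and pooled in mixtures of ~100 molecules, were run on a Zorbax Extend-C18 column (2.1 × 50 mm, 1.8 μm) at 100 μL/min with water and acetonitrile, each with 0.1% formic acid. Detection was by quadrupole time-of-flight mass spectrometry in positive and negative ionization mode, with a dead volume of 40 μL and a dwell volume of 900 μL.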

| RP-LC retention time [s] | SMILES |
| --- | --- |
| 1090 | COc1ccc(Cc2nnc3sc(-c4ccc(N(C)C)cc4)nn23)cc1 |
| 976 | CCN1C(=O)COc2ccc(-c3csc(NC(=O)c4ccc(OC)cc4)n3)cc21 |
| 1110 | O=C(Nc1cccc(F)c1)N1CC2CCCN2c2ccccc21 (centres undefined) |
| 808 | COCCN1CC2(CCN(S(=O)(=O)c3c(C)cc(C)cc3C)CC2)C1c1ccccc1 (centres undefined) |
| 810 | COc1ccc(-n2ccn3cc(-c4ccc(Cl)cc4)nc3c2=O)cc1OC |
| 844 | Cc1sc(NC(=O)c2ccco2)nc1-c1ccc2c(c1)N(C)C(=O)CO2 |
| 824 | O=C1NCCCCCCN(C(=O)c2ccco2)[C@H]2C[C@H](C(=O)N3CCc4ccccc4C3)C[C@@H]12 |
| 1060 | COc1cc(OC)c(Nc2cc(C)nc3nc(-c4ccc(C)cc4)nn23)cc1Cl |
| 864 | O=C1COc2cc(S(=O)(=O)N3CCCC3C(=O)NC3CCCCCCC3)c(Cl)cc2N1 (centres undefined) |
| 888 | Cc1ccc2c(c1)N(C(=O)Cn1cnc3nc4c(cc3c1=O)CC(C)CC4)CCO2 (centres undefined) |
| 855 | COc1cccc(NC(=O)N2CCCC2c2cc(C(C)C)no2)c1 (centres undefined) |
| 646 | CCn1c(N2CCN(C(=O)NCc3ccccc3)CC2)nc2ccccc21 |
| 697 | CCNC(=O)c1cc(C)nc2ccc(C(C)C)cc12 |
| 795 | CCc1nnc(-c2ccc(NC(=O)CCc3ccc(OC)cc3)cc2)o1 |
| 1130 | CCc1nc(-c2cc(S(=O)(=O)Nc3ccc(F)cc3Cl)c(C)s2)cs1 |
| 1330 | COc1cc(Br)ccc1NC(=O)C1CCCN(c2nc3ccccc3nc2OC)C1 (centres undefined) |
| 963 | CCCCOc1ccc(-c2nc3ccc(Br)cc3c(C(=O)O)c2C)cc1 |
| 1020 | CCC(C(=O)NCc1ccc2c(c1)OCO2)n1ccc2cc(S(=O)(=O)N3CCCCC3)ccc21 (centres undefined) |
| 810 | Cc1cccc(C)c1NC(=O)CCCSc1nnnn1-c1ccccc1 |
| 657 | CCS(=O)(=O)N1CCCc2cc(C(=O)NC)ccc21 |
| 651 | O=C(NCc1ccccc1)NCC1CCOCC1 |
| 881 | O=C(c1ccc(C(F)(F)F)cc1)N1CC2CN(S(=O)(=O)c3ccccc3)CC(C1)O2 |

| RP-LC retention time [s] | SMILES |
| --- | --- |
| 1110 | COc1cc(OC)cc(-c2nc(C3CC(=O)N(c4ccc(F)c(Cl)c4)C3)no2)c1 (centres undefined) |
| 755 | COc1cc(-c2nnc(-c3cccc(S(=O)(=O)N4CCC(C)CC4)c3)o2)cc(OC)c1OC |
| 616 | Cc1cccc(NC(=O)N2CCC3(CC2)NC(=O)c2ccccc2N3C)c1 |
| 1360 | CC(C)(C)c1ccc(-c2nc(C3CC(=O)N(c4ccc(F)c(Cl)c4)C3)no2)cc1 (centres undefined) |
| 575 | CC(C)C(=O)N1CCOc2ccc(N(C)C)cc2C1 |
| 988 | CCSc1nnc(-c2nn(C)c3c2CN(S(=O)(=O)c2cc(F)ccc2C)CC3)n1CC |
| 872 | CCCCCNC(=O)CCc1nnc2c3cc(-c4ccc(C)c(C)c4)nn3ccn12 |
| 705 | Cc1cccc(CC(=O)Nc2c(C(=O)N3CCN(c4ccccn4)CC3)oc3ccccc23)c1 |
| 874 | CCc1nc(OCC(=O)Nc2ccc(Br)cc2)c2ccccc2n1 |
| 695 | CC(NC(=O)Cc1cn(C)c2ncccc12)c1ccc(F)cc1 (centres undefined) |
| 726 | CNC(=O)C1CN(C(=O)c2cccc(Cl)c2)CC12CCCC2 (centres undefined) |
| 960 | CCc1ccccc1NS(=O)(=O)c1ccc(-c2nnc(C3CCC3)o2)o1 |
| 657 | O=C(O)c1nnn(-c2ccccc2)c1-c1ccccn1 |
| 868 | CCN1c2ccccc2C(=O)NC12CCN(C(=O)c1cc(C)cc(C)c1)CC2 |
| 798 | Cc1nc(Cn2cccc2C(=O)Nc2cccc(C#N)c2)no1 |
| 589 | COc1ccc2[nH]c(=O)c(CCC(=O)NCCCN3CCCCC3C)cc2c1 (centres undefined) |
| 720 | CC(C)Cc1nn(-c2ccccc2)cc1CN1CC(=O)NCC12CCCC2 |
| 662 | CCCn1c(=O)sc2cc(S(=O)(=O)N3CCC(C(=O)NCc4ccccn4)CC3)ccc21 |
| 913 | COC(=O)[C@H]1[C@H]2C[C@H]3c4[nH]c5cc(OC)ccc5c4CCN3C[C@H]2C[C@@H](OC(=O)c2cc(OC)c(OC)c(OC)c2)[C@@H]1OC |
| 595 | O=C(Cc1c[nH]c2ccccc12)NCC1CCN(c2cc(-c3ccncc3)[nH]n2)CC1 |
| 838 | COc1ccc(Cl)cc1NC(=O)CN1C(=O)NC2(CCCCC2C)C1=O (centres undefined) |
| 1030 | Cc1nc(-c2cc(S(=O)(=O)NCc3ccc(Br)cc3)c(C)s2)cs1 |

| RP-LC retention time [s] | SMILES |
| --- | --- |
| 784 | CCc1onc(C)c1C1CCCN1C(=O)c1cccc(F)c1 (centres undefined) |
| 616 | Clc1ccc(-c2nc(N3CCC(N4CCCCC4)CC3)c3ccccc3n2)cc1 |
| 1000 | Cc1ccc(-n2ccn3cc(-c4ccc(F)cc4F)nc3c2=O)cc1Cl |
| 656 | CCn1nc(C)c(CCNC(=O)C(C)n2c3ccccc3c3cnn(C)c(=O)c32)c1C (centres undefined) |
| 764 | CN(C)c1ccc(-c2nc3cnccn3c2NC2CCCC2)cc1 |
| 1120 | CCc1ccc(Oc2nccnc2N2CCC(C(=O)NC(C)c3ccccc3)CC2)cc1 (centres undefined) |
| 592 | CCC(=O)N1CCCC1c1nc2ccccc2n1CC(=O)OC (centres undefined) |
| 878 | C#CCCOC(=O)Nc1ccccc1 |
| 1050 | Cc1csc(-c2cc(S(=O)(=O)NCc3ccccc3Cl)c(C)s2)n1 |
| 1160 | CCCc1ccc(S(=O)(=O)N2C[C@@H]3C(=O)N(C(CC)c4cccs4)C(=O)[C@@H]3C2)cc1 (some centres undefined) |
| 670 | CC1CCCCN1CCCNC(=O)Cn1ccc2cc(S(=O)(=O)N3CCCCC3)ccc21 (centres undefined) |
| 736 | COC(=O)c1c(NCc2ccc(OC)c(OC)c2)c2cccc(Cl)c2[nH]c1=O |
| 966 | Cn1nc(-c2nc(-c3ccc(F)cc3)no2)c2c1CCN(C(=O)NC(C)(C)C)C2 |
| 626 | Cc1ccc(-n2c(=O)c3c(cc(C)n3C)n(CC(=O)Nc3c(C)cc(C)cc3C)c2=O)cc1 |
| 876 | CCOc1ccccc1-n1ccn(Cc2nc(-c3cccc(F)c3)no2)c(=O)c1=O |
| 630 | O=S(=O)(NCCc1c[nH]c2ncccc12)c1ccccc1Br |
| 1060 | COc1cccc(Cn2cc(C(=O)c3cc(C)ccc3C)c(=O)c3ccc(C)nc32)c1 |
| 940 | Cc1cnn(Cc2nc(-c3ccc(NC(=O)c4ccc(C)s4)cc3)oc2C)c1 |
| 1000 | COc1ccccc1C1(CNS(=O)(=O)c2ccc3c(c2)CCCC3)CCOCC1 |
| 1260 | Cc1ccccc1NS(=O)(=O)c1cc(-c2nc(C(C)(C)C)cs2)cs1 |
| 846 | COc1cccc(C(=O)CSc2ccc(NC(=O)c3cccs3)nn2)c1 |
| 880 | Cc1[nH]c(C(=O)Nc2cccc(F)c2)c(C)c1S(=O)(=O)N1CCCC1 |

| RP-LC retention time [s] | SMILES |
| --- | --- |
| 867 | O=S(=O)(c1cccn2cnnc12)N(Cc1ccccc1F)c1ccc(F)c(F)c1 |
| 740 | Cc1c(C(=O)N2CCSCC2)cnn1-c1ncccc1-c1nc(C2CC2)no1 |
| 868 | CC(C)Cn1c(=O)c(C(=O)NCc2ccccc2F)nc2cccnc21 |
| 610 | O=C(NCCCN1CCOCC1)C1CCCN(c2ccc(=O)n(-c3cccc(Cl)c3)n2)C1 (centres undefined) |
| 564 | Cc1nc([C@@H]2CN(C(=O)C(C)(C)C)C[C@H]2C(N)=O)n[nH]1 |
| 819 | N#Cc1cccc(C(=O)NC2CCCC(OC(=O)Nc3ccccc3)C2)c1 (centres undefined) |
| 752 | Cc1ccnc(NC(c2ccccc2)c2ccc3cccnc3c2O)c1 (centres undefined) |
| 715 | O=C(CCc1c(-c2ccccc2)nc2ccccn12)Nc1ccc(Cl)cc1F |
| 595 | NCCC1CCN(C(=O)Nc2cccc(F)c2)CC1 |
| 854 | COc1ccc(-n2cc(C(=O)OCc3ccccn3)c3ccccc3c2=O)cc1 |
| 1080 | Cc1ccc(NC(=O)N2CCc3nc(-c4ccccc4)ncc3C2)c(Cl)c1 |
| 1040 | COc1ccc(-c2nnc(-c3cc(S(=O)(=O)NCc4cccs4)ccc3Cl)o2)cc1 |
| 602 | O=C(O)c1nnn(-c2ccc3c(c2)OCO3)c1-c1cccnc1 |
| 925 | N#Cc1ccc(C(=O)N2CCCC2c2nc(-c3ccccc3)no2)cc1 (centres undefined) |
| 630 | Cc1c(C(=O)N2CCN(C)CC2)cnn1-c1cc(-c2nc(C3CC3)no2)ccn1 |
| 518 | CN(C)[C@@H]1CN(Cc2ccccc2C#N)C[C@H]1CO |
| 689 | Cc1ccc(N2CC(C(=O)NCCn3cnc(-c4ccccc4)cc3=O)CC2=O)cc1C (centres undefined) |
| 772 | CC(C)(C)c1ccc(C(=O)Nc2ccc3nnc(C4CCC4)n3c2)cc1 |
| 624 | c1ccc2[nH]c(-c3ccncc3)nc2c1 |
| 788 | N#Cc1cccc(NC(=O)C(=O)c2ccc[nH]2)c1 |
| 693 | COC(=O)c1ccc2c(=O)n(-c3ccccc3)c(N3CCC(C(N)=O)CC3)nc2c1 |

| SMILES | RP-LC retention time [s] |
| --- | --- |
| Cc1ncc2c(n1)C[C@@H]1CC[C@H]2N1S(=O)(=O)c1ccccc1C | 750 |
| CN1[C@@H]2CC[C@H]1CC(OC(=O)C(CO)c1ccccc1)C2 (some centres undefined) | 613 |
